We go through 14 compounds from patent US10457703B2, “Bile acid derivatives as FXR/TGR5 agonists and methods of use thereof” (ENANTA PHARMACEUTICALS, INC., priority 2015, dated 2019).

pEC50: −log10 of the molar value.

This experiment concerns the target human FXR (NR1H4) (Homo sapiens (Human), UniProt Q96RI1). In words: Human FXR (NR1H4) Assay (Gal4 promoter driven luciferase reporter, Indigo Bioscience kit).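 For Efficacy (%): 100% equals the efficacy of CDCA; efficacy normalized to CDCA set as 100%.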 It counts as cell-based. The note with it: for pEC50: Human FXR (NR1H4) Assay, potency ranges; for Emax: read-out: Efficacy (%). Put shortly:
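CHO reporter cells expressing human FXR with an FXR-responsive luciferase reporter, treated with compound doses at 0.2% DMSO. Incubation lasted 22 h at 37 °C before luciferase detection reagent was added. Luminescence was then read.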
In general terms: In a reporter assay the amount or activity of a reporter protein is the signal.

Chain of human FXR (NR1H4) (Q96RI1 whole entry, the tested form may be a part): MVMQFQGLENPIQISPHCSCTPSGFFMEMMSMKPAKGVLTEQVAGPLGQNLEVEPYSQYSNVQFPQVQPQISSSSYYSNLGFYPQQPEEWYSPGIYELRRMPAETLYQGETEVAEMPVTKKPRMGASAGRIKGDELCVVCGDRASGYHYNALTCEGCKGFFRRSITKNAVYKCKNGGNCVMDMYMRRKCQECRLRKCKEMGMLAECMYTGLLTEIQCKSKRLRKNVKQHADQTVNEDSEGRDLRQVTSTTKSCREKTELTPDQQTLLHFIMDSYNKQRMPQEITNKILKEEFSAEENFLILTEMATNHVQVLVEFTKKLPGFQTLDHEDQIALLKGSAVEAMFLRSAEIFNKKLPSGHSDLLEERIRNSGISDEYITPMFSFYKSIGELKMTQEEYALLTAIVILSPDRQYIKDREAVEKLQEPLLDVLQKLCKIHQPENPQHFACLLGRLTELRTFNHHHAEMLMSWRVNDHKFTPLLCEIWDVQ

By pEC50 is commonly meant the EC50 on a negative log10 scale, so that one unit is a factor of ten. Lower therefore signals a high EC50. As for `CC[C@H]1[C@@H](O)[C@@H]2[C@H](CC[C@]3(C)[C@@H]([C@H](C)CCCOC(=O)N(C)C)CC[C@@H]23)[C@@]2(C)CC[C@@H](O)C[C@@H]12` [Example 128], the pEC50 was 5.00 to 6.00 and the Emax stood at 138%.
With `CC[C@H]1[C@@H](O)[C@@H]2[C@H](CC[C@]3(C)[C@@H]([C@H](C)COC(=O)NS(=O)(=O)c4ccc(-n5ccnn5)nc4)CC[C@@H]23)[C@@]2(C)CC[C@@H](O)C[C@@H]12` [Example 44-n], the negative logarithm of the EC50 (pEC50) was 6.00 to 7.00 and the Emax is 307%.
On to `CC[C@H]1[C@@H](O)[C@@H]2[C@H](CC[C@]3(C)[C@@H]([C@H](C)CCOC(=O)N[C@H]4CCCC[C@@H]4O)CC[C@@H]23)[C@@]2(C)CC[C@@H](O)C[C@@H]12` [Example 168], for which the pEC50 is 6.00 to 7.00 and the Emax came out at 302%.
Turning to `CC[C@H]1[C@@H](O)[C@@H]2[C@H](CC[C@]3(C)[C@@H]([C@H](C)CCOC(=O)N4CC[C@H](O)C4)CC[C@@H]23)[C@@]2(C)CC[C@@H](O)C[C@@H]12` [Example 181], the pEC50 was above 7.00 and the Emax was 382%.
With `CC[C@H]1[C@@H](O)[C@@H]2[C@H](CC[C@]3(C)[C@@H]([C@H](C)COC(=O)NS(=O)(=O)c4ccc(N5CCCCCC5)cc4)CC[C@@H]23)[C@@]2(C)CC[C@@H](O)C[C@@H]12` [Example 22], the negative logarithm of the EC50 (pEC50) is above 7.00 and the Emax turned out to be 262%.
`CC[C@H]1[C@@H](O)[C@@H]2[C@H](CC[C@]3(C)[C@@H]([C@H](C)CCOC(=O)NS(=O)(=O)CC)CC[C@@H]23)[C@@]2(C)CC[C@@H](O)C[C@@H]12` [Example 98]: the negative-log EC50 (pEC50) is 6.00 to 7.00 and the Emax was determined as 279%.
`CC[C@H]1[C@@H](O)[C@@H]2[C@H](CC[C@]3(C)[C@@H]([C@H](C)COC(=O)NCc4ccccc4)CC[C@@H]23)[C@@]2(C)CC[C@@H](O)C[C@@H]12` [Example 205]: the negative-log EC50 (pEC50) is 5.00 to 6.00 and the Emax amounted to 5%.
On to `CC[C@H]1[C@@H](O)[C@@H]2[C@H](CC[C@]3(C)[C@@H]([C@H](C)CCCOC(=O)NS(=O)(=O)C(C)(C)C)CC[C@@H]23)[C@@]2(C)CC[C@@H](O)C[C@@H]12` [Example 117], for which the pEC50 was 6.00 to 7.00 and the Emax came out at 365%.
Consider `CC[C@H]1[C@@H](O)[C@@H]2[C@H](CC[C@]3(C)[C@@H]([C@H](C)CCOC(=O)NS(=O)(=O)c4ccccc4C(F)(F)F)CC[C@@H]23)[C@@]2(C)CC[C@@H](O)C[C@@H]12` [Example 80], for which the pEC50 was 6.00 to 7.00 and the Emax stood at 363%.
The matching figures for `CCOC(=O)C1CCN(C(=O)OCC[C@@H](C)[C@H]2CC[C@H]3[C@@H]4[C@H](O)[C@H](CC)[C@@H]5C[C@H](O)CC[C@]5(C)[C@H]4CC[C@]23C)CC1` [Example 145]: 5.00 to 6.00 and 247%.
The matching figures for `CC[C@H]1[C@@H](O)[C@@H]2[C@H](CC[C@]3(C)[C@@H]([C@H](C)CCOC(=O)NS(=O)(=O)c4ccncc4)CC[C@@H]23)[C@@]2(C)CC[C@@H](O)C[C@@H]12` [Example 73]: 5.00 to 6.00 and 352%.
The matching figures for `CC[C@H]1[C@@H](O)[C@@H]2[C@H](CC[C@]3(C)[C@@H]([C@H](C)COC(=O)NS(=O)(=O)c4ccc(-c5ccc(OC(F)(F)F)cc5)s4)CC[C@@H]23)[C@@]2(C)CC[C@@H](O)C[C@@H]12` [Example 26]: 6.00 to 7.00 and 206%.
For `CC[C@H]1[C@@H](O)[C@@H]2[C@H](CC[C@]3(C)[C@@H]([C@H](C)CCOC(=O)NC4CCCCC4)CC[C@@H]23)[C@@]2(C)CC[C@@H](O)C[C@@H]12` [Example 127], the pEC50 is 6.00 to 7.00 and the Emax stood at 308%.
In the case of `CC[C@H]1[C@@H](O)[C@@H]2[C@H](CC[C@]3(C)[C@@H]([C@H](C)CCOC(=O)N(CCO)CCO)CC[C@@H]23)[C@@]2(C)CC[C@@H](O)C[C@@H]12` [Example 179], the negative-log EC50 (pEC50) was 6.00 to 7.00 and the Emax was 333%.
